Structures can show the parent of a compound that is named as a salt.
How the values were obtained:
hPPARγ = biological target: T1, hPPARγ (Homo sapiens, UniProt P37231); assay: Determination of hPPARγ activity (GAL4 fusion luciferase reporter in HEK-293 cells); format: cell-based; conditions: compound concentration 1 μM
T1 construct: expressed in transfected cells; host or cells: HEK-293
T1 sequence (P37231 238-503 limits assumed): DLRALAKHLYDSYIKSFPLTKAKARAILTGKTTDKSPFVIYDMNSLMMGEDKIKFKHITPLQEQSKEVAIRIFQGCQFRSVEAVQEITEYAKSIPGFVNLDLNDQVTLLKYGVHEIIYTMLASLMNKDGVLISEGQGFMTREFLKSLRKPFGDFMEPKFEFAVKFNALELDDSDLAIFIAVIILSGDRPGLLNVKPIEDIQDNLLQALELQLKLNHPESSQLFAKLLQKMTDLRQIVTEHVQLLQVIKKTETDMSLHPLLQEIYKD
Description: b) Determination of hPPARγ Activity
Ligand binding domain of hPPARγ is fused to DNA binding domain of Yeast transcription factor GAL4 in eucaryotic expression vector. Using lipofectamine (Gibco BRL, USA) as transfecting reagent HEK-293 cells are transfected with this plasmid and a reporter plasmid harboring the luciferase gene driven by a GAL4 specific promoter. Compound can be added at 1 μM concentration after 48 hrs of transfection and incubated overnight Luciferase activity as a function of drug binding/activation capacity of PPARγ1 will be measured using Packard Luclite kit (Packard, USA) in Packard Top Cout (Ivan Sadowski, Brendan Bell, Peter Broag and Melvyn Hollis. Gene. 1992. 118: 137-141; Guide to Eukaryotic Transfections with Cationic Lipid Reagents. Life Technologies, GIBCO BRL, USA).

hPPARα = biological target: T2, hPPARα (Homo sapiens, UniProt Q07869); assay: Determination of hPPARα activity (GAL4 fusion luciferase reporter in HEK-293 cells); format: cell-based; conditions: compound concentration 50 μM
T2 construct: expressed in transfected cells; host or cells: HEK-293
T2 sequence (Q07869 239-466 limits assumed): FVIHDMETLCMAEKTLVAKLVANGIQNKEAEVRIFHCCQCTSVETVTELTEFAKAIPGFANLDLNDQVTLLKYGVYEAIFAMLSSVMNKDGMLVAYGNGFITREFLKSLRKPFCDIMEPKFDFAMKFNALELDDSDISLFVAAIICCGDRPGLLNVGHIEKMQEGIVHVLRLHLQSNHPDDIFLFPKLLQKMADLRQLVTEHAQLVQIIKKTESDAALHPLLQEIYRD
Description: a) Determination of hPPARα Activity
Ligand binding domain of hPPARα was fused to DNA binding domain of Yeast transcription factor Gal 4 in eucaryotic expression vector. Using superfect (Qiagen, Germany) as transfecting reagent HEK-293 cells are transfected with this plasmid and a reporter plasmid harboring the luciferace gene driven by a GAL4 specific promoter. Compound can be added at different concentrations after 42 hrs of transfection and incubated overnight. Luiciferase activity as a function of compound binding/activation capacity of PPARα will be measured using Packard Luclite kit (Packard, USA) in Top Count (Ivan Sadowsi, Brendan Bell, Peter Broag and Melvyn Hollis. Gene. 1992. 118: 137-141; Superfect Transfetion Reagent Handbook February 1997. Qiagen, Germany.

Swiss albino mice = assay: Plasma triglyceride and total cholesterol lowering activity in Swiss albino mice and guinea pigs; format: in vivo; conditions: 10 mg/kg orally for 6 days; species not named
Description: c) Plasma Triglyceride and Total Cholesterol Lowering Activity in Swiss Albino Mice and Gunie Pigs
Male Swiss albino mice (SAM) and male Guinea pigs were obtained from NIN and housed in DRF animal house. All these animals are maintained under 12 hour light and dark cycle at 25±1° C. Animals were given standard laboratory chow (NIN, Hyderabad, India) and water, ad libitum. SAM of 20-25 g body weight range and Guinea pigs of 500-760 g body weight range are used (Oliver, P., Plancke, M. O., Marzin, D., Clavey, V., Sauzieres, J and Fruchatt, J. C. Effects of fenofibrate, gemfibrozil and nicotinic acid on plasma lipoprotein levels in normal and hyperlipidemic mice. Atherosclerosis. 1988. 70 : 107-114).
The test compounds were administered orally to Swiss albino mice at 0.3 to 30 mg/kg/day dose for 6 days. Control mice are treated with vehicle (0.25% Carboxymethylcellulose; dose 10 ml/kg). The test compounds are administered orally to Guinea pigs at 0.3 to 30 mg/kg/day dose for 6 days. Control animals are treated with vehicle (0.25% Carboxymethylcellulose; dose 5 ml/kg).
The blood samples were collected in fed state 1 hour after drug administration on 0 and 6 day of treatment The blood was collected from the retro-orbital sinus through heparinised capillary in EDTA containing tubes. After centrifugation, plasma sample was separated for triglyceride and total cholesterol (Wieland, O. Methods of Enzymatic analysis. Bergermeyer, H. O., Ed., 1963. 211-214; Trinder, P. Ann. Clin. Biochem. 1969. 6: 24-27). Measurement of plasma triglyceride were done using commercial kits (Dr. Reddy's Diagnostic Division, Hyderabad, India).
(§1) 1. Percent reduction in Blood sugar/triglycerides/total cholesterol will be calculated according to the formula:
(§2) [formula] • OC=Zero day control group value • OT=Zero day treated group value • TC=Test day control group value • TT=Test day treated group value

C57BL/KsJ-db/db mice = assay: Blood sugar and triglyceride lowering in db/db mice; format: in vivo; conditions: 3 mg/kg oral gavage daily for 6 days
Text: Mutation in colonies of laboratory animals and different sensitivities to dietary regimens have made the development of animal models with non-insulin dependent diabetes and hyperlipidemia associated with obesity and insulin resistance possible. Genetic models such as db/db and ob/ob (Diabetes, (1982) 31(1): 1-6) mice and zucker fa/fa rats have been developed by the various laboratories for understanding the pathophysiology of disease and testing the efficacy of new antidiabetic compounds (Diabetes, (1983) 32: 830-838; Annu. Rep. Sankyo Res. Lab. (1994). 46: 1-57). The homozygous animals, C57 BL/KsJ-db/db mice developed by Jackson Laboratory, US, are obese, hyperglycemic, hyperinsulinemic and insulin resistant (J. Clin. Invest., (1990) 85 : 962-967), whereas heterozygous are lean and normoglycemic. In db/db model, mouse progressively develops insulinopenia with age, a feature commonly observed in late stages of human type II diabetes when blood sugar levels are insufficiently controlled. The state of pancreas and its course vary according to the models. Since this model resembles that of type II diabetes mellitus, the compounds of the present invention will be tested for blood sugar and triglycerides lowering activities.
Male C57BL/KsJ-db/db mice of 8 to 14 weeks age, having body weight range of 35 to 60 grams, bred at Dr. Reddy's Research Foundation (DRF) animal house, were used in the experiment. The mice are provided with standard feed (National Institute of Nutrition (NIN), Hyderabad, India) and acidified water, ad libitum. The animals having more than 350 mg/dl blood sugar will be used for testing. The number of animals in each group was 4.
Test compounds are suspended on 0.25% carboxymethyl cellulose and administered to test group at a dose of 0.1 mg to 30 mg/kg through oral gavage daily for 6 days. The control group receives vehicle (dose 10 ml/kg). On 6th day the blood samples will be collected one hour after administration of test compounds/vehicle for assessing the biological activity.
The random blood sugar and triglyceride levels can be measured by collecting blood (100 μl) through orbital sinus, using heparinised capillary in tubes containing EDTA which was centrifuged to obtain plasma. The plasma glucose and triglyceride levels can be measured spectrometrically, by glucose oxidase and glycerol-3-PO4 oxidase/peroxidse enzyme (Dr. Reddy's Lab. Diagnostic Division Kits, Hyderabad, India) methods respectively.
The blood sugar and triglycerides lowering activities of the test compound are calculated according to the formula.
1. Percent reduction in Blood sugar/triglycerides/total cholesterol will be calculated according to the formula: […]

[1] = system: hypercholesterolemic Sprague Dawley rats; assay: Plasma triglyceride and cholesterol lowering activity in hypercholesterolemic rat models; format: in vivo; conditions: 10 mg/kg orally for 3 days; for HDL (%) ↑: increase; for Total Cholesterol (%) ↓ / Triglyceride (%) ↓ / LDL (%) ↓ / VLDL (%) ↓: reduction; for LDL (%) ↓: LDL calculated from total cholesterol; for LDL (%) ↓ / VLDL (%) ↓: HDL and triglyceride; for VLDL (%) ↓: VLDL calculated from total cholesterol
Description: b) Plasma Triglyceride and Cholesterol Lowering Activity in Hypercholesterolemic Rat Models
Male Sprague Dawley rats (NIN stock) were bred in DRF animal house. Animals were maintained under 12 hour light and dark cycle at 25±1° C. Rats of 180-200 gram body weight range were used for the experiment. Animals are made hypercholesterolemic by feeding 2% cholesterol and 1% sodium cholate mixed with standard laboratory chow [National Institute of Nutrition (NIN), Hyderabad, India] […] for 6 days. Throughout the experimental period the animals were maintained on the same diet (Petit, D., Bonnefis, M. T., Rey, C and Infante, R. Effects of ciprofibrate on liver lipids and lipoprotein synthesis in normo- and hyperlipidemic rats. Atherosclerosis. 1988. 74 : 215-225).
The test compounds can be administered orally at a dose 0.1 to 30 mg/kg/day for 3 days. Control group was treated with vehicle alone (0.25% Carboxymethylcellulose; dose 10 ml/kg).
The blood samples were collected in fed state 1 hour after drug administration on 0 and 3 day of compound treatment. The blood was collected from the retro-orbital sinus through heparinsed capillary in EDTA containing tubes. After centrifugation, plasma sample was separated for total cholesterol, HDL and triglyceride estimations. Measurement of plasma, triglyceride, total cholesterol and HDL are were done using commercial kits (Dr. Reddy's Laboratory, Diagnostic Division, India). LDL and VLDL cholesterol were calculated from the data obtained for total cholesterol, HDL and triglyceride. The reduction of various parameters examined are calculated according to the formula.
as §1, §2
2. LDL and VLDL cholesterol levels will be calculated according to the formula:
[formula] VLDL cholesterol in mg/dl=[Total cholesterol−HDL cholesterol−LDL cholesterol]mg/dl.

Compound | PPARγ (hPPARγ) | PPARα (hPPARα) | Triglyceride Lowering (%) (Swiss albino mice) | Reduction in Blood Glucose Level (%) (C57BL/KsJ-db/db mice) | Triglyceride Lowering (%) (C57BL/KsJ-db/db mice) | HDL (%) ↑ [1] [%] | Total Cholesterol (%) ↓ [1] [%] | Triglyceride (%) ↓ [1] [%] | LDL (%) ↓ [1] [%] | VLDL (%) ↓ [1] [%]
CCCCCCCN(CC(=O)N1CCOc2ccccc21)Cc1ccc(CC(OCC)C(=O)O)cc1 (stereo not shown) [Example 9, 2-Ethoxy-3-[4-{N-heptyl-N-(2-(3,4-dihydro-2H-benzo[b]oxazin-4-yl)-2-oxoethyl)aminomethyl}phenyl]propanoic acid arginine salt] | 6.2 | 4.6 |  |  |  |  |  |  |  | 
CCOC(Cc1ccc(NCc2ccc(OCCCN3CCOc4ccccc43)cc2)cc1)C(=O)O (stereo not shown) [Example 23, 2-Ethoxy-3-[4-{4-(3-(3,4-dihydro-2H-benzo[b][1,4]oxazin-4-yl)propyloxy)benzyl}aminophehyl]propanoic acid arginine salt] | 4.4 | 4.2 |  |  |  |  |  |  |  | 
CCCCCCCN(CCN1C(=O)COc2ccccc21)c1ccc(CC(OCC)C(=O)O)cc1 (stereo not shown) [Example 6, 3-[4-N-Heptyl-N-{2-(3-oxo-3,4-dihydro-2H-benzo[b][1,4]oxazin-4-yl)ethylamino}phenyl]-2-ethoxypropanoic acid arginine salt] |  |  | 27 |  |  |  |  |  |  | 
CCOC(Cc1cccc(NCCCN2CCOc3ccccc32)c1)C(=O)O (stereo not shown) [Example 15, 3-[3-{3-(3,4-Dihydro-2H-benzo[b][1,4]oxazin-4-yl)propylamino}phenyl]-2-ethoxypropanoic acid arginine salt] |  |  | 43 |  |  |  |  |  |  | 
CCOC(Cc1ccc(NCCCN2CCSc3ccccc32)cc1)C(=O)O (stereo not shown) [Example 27, 2-Ethoxy-3-[4-{3-3,4-dihydro-2H-benzo[b][1,4]thiazin-4-yl)propylamino}phenyl]propanoic acid arginine salt] | 3.5 | 4.3 |  |  |  |  |  |  |  | 
CCOC(Cc1ccc(NCCCN2CCOc3cc(F)ccc32)cc1)C(=O)O (stereo not shown) [Example 18, 3-[4-{3-(7-Fluoro-3,4-dihydro-2H-benzo[b][1,4]oxazin-4-yl)propylamino}phenyl]-2-ethoxypropanoic acid arginine salt] | 1.2 | 4.4 | 61 | 16 | 35 | 260 | 64 | 77 | 74 | 77
CCOC(Cc1ccc(NCCCN2CCOc3ccccc32)cc1)C(=O)O (stereo not shown) [Example 3, 3-[4-{3-(3,4-Dihydro-2H-benzo[b][1,4]oxazin-4-yl)propylamino}phenyl]-2-ethoxypropanoic acid arginine salt] | 3.0 | 4.7 | 70 | 33 | 29 | 254 | 69 | 77 | 80 | 77
